These results are taken from PMC5216056 (Nature Communications, 2017).

Molecules are shown by their SMILES. Values joined by “and” are separate entries in the source; they are usually repeats but may differ in a detail not shown here. Equal entries are not always repeated. Where only a bound is given, the exact number is not on record here.

Chain of hCB2R (P34972 whole entry): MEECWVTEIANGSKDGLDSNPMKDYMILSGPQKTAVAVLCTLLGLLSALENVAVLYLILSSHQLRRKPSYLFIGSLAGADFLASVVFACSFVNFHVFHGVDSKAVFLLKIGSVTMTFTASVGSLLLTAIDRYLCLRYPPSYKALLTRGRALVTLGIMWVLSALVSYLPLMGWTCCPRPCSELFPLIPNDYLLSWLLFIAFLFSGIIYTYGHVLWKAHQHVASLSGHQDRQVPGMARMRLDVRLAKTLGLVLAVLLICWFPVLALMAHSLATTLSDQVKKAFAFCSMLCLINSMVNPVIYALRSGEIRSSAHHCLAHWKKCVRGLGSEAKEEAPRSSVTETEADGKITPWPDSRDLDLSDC
T6 sequence (P23975 whole entry): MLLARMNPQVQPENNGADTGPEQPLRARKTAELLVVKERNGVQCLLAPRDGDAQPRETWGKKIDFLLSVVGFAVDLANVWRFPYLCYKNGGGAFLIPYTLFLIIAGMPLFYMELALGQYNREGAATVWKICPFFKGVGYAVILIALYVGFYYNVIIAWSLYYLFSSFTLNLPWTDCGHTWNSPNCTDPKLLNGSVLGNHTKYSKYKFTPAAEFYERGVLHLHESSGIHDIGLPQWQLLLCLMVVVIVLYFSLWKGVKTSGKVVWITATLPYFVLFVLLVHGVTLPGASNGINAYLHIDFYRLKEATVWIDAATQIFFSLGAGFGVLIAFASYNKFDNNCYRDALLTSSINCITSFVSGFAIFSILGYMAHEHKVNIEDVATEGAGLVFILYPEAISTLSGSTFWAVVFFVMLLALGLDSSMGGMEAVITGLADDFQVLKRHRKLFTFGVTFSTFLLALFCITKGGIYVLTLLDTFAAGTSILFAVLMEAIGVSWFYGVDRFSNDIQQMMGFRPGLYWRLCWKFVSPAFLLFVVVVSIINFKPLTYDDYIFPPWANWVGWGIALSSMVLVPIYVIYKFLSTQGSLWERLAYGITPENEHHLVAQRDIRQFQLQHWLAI
T4 sequence (P35372 whole entry): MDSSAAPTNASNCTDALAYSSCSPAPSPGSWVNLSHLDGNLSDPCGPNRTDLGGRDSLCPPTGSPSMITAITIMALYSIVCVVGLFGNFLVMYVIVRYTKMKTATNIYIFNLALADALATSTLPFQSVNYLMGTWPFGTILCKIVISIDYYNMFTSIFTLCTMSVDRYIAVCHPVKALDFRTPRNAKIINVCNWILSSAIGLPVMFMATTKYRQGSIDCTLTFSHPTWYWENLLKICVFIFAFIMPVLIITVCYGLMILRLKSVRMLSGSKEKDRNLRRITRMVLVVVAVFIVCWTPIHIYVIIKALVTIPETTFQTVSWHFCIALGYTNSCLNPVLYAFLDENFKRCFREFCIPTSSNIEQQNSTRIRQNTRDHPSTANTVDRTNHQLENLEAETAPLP
T8 sequence (Q8R455 whole entry): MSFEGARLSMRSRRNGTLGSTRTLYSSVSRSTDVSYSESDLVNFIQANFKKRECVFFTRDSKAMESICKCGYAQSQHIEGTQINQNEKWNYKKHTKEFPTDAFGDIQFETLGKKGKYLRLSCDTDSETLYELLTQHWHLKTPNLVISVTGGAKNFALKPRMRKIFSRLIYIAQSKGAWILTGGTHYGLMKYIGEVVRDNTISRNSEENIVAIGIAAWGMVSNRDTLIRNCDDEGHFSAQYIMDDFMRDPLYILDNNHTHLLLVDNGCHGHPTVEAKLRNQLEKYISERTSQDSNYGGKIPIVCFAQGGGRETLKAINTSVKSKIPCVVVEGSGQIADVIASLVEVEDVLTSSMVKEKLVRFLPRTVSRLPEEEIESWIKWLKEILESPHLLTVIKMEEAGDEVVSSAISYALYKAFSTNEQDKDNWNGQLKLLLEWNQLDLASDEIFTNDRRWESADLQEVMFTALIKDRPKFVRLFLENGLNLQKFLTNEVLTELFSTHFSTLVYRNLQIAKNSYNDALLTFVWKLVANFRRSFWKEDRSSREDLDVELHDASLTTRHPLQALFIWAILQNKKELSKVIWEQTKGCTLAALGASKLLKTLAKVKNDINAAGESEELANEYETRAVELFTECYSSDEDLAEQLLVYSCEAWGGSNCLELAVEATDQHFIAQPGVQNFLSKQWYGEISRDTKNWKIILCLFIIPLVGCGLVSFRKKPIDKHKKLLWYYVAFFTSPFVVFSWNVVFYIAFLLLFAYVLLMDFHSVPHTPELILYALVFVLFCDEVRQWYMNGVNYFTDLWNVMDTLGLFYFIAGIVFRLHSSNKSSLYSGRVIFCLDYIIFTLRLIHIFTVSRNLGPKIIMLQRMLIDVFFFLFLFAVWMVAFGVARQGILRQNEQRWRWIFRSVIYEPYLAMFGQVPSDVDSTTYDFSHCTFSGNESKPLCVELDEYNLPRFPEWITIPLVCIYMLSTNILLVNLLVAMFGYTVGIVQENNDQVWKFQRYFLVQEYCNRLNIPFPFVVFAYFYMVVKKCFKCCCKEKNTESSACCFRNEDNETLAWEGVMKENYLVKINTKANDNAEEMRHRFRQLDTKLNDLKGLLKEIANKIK

The first data set has as its target hCB2R (Homo sapiens, UniProt P34972). The data set is described as follows: cell-based. It is filed as cell-based. Further details: expressed in transfected cells; host or cells: Flp-In-293 (Invitrogen #R750-07), pcDNA5/FRT.
Conditions: not given
As for `CCCC(C)(C)c1ccc2c(c1)OC(C)(C)[C@@H]1CC=C(C)C[C@@H]21` [JWH133], the “Emax ± SEM GIRK hCB2R” value is reported as 31 ± 12 and the “pEC50 ± SEM GIRK hCB2R” value is less than 5.

In the next data set the target is T1, Rat recombinant TRPV3 (Rattus norvegicus, UniProt Q4QYD9).
T1 construct: expressed in transfected cells; host or cells: HEK293 (TRPV3-HEK-293, gift from HB Bradshaw, Indiana University)
T1 sequence (Q4QYD9 1-791): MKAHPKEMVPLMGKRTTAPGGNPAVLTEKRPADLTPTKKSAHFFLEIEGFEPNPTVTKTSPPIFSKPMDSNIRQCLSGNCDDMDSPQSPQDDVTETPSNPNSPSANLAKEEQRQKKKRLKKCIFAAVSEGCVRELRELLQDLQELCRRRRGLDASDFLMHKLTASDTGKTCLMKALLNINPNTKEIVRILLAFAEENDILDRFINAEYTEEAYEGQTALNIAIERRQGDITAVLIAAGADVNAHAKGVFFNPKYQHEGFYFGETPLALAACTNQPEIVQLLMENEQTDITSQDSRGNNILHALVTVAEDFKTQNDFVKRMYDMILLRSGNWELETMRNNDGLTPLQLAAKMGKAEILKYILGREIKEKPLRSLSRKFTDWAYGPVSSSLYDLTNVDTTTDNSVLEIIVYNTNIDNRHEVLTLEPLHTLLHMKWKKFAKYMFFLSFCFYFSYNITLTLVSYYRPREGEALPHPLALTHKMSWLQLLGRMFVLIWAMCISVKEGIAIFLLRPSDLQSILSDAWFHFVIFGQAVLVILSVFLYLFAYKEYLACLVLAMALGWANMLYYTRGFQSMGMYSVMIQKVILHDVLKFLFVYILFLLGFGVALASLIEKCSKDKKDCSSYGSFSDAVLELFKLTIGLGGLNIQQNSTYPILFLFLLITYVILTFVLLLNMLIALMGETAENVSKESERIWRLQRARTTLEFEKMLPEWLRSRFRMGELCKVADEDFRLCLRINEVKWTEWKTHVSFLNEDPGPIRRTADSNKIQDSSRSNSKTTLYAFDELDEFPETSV
The data set is described as follows: cell-based. Type of data set: cell-based.
Conditions: not given
With `CCCC(C)(C)c1ccc2c(c1)OC(C)(C)[C@@H]1CC=C(C)C[C@@H]21` [JWH133], the “TRPV3 Efficacy (% ionomycin 4μM)” value is less than 10%.

Still in this data set, the particulars now being: vs thymol 100μM; read-out: TRPV3 IC50 for antagonism or desensitization.
On to `CCCC(C)(C)c1ccc2c(c1)OC(C)(C)[C@@H]1CC=C(C)C[C@@H]21` [JWH133], for which the IC50 (commonly the concentration needed to halve the response being measured) amounted to 80.6 µM.

In a further data set the target is T2, hCB1R (Homo sapiens, UniProt P21554).
T2 construct: host or cells: CHO
T2 sequence (P21554 whole entry): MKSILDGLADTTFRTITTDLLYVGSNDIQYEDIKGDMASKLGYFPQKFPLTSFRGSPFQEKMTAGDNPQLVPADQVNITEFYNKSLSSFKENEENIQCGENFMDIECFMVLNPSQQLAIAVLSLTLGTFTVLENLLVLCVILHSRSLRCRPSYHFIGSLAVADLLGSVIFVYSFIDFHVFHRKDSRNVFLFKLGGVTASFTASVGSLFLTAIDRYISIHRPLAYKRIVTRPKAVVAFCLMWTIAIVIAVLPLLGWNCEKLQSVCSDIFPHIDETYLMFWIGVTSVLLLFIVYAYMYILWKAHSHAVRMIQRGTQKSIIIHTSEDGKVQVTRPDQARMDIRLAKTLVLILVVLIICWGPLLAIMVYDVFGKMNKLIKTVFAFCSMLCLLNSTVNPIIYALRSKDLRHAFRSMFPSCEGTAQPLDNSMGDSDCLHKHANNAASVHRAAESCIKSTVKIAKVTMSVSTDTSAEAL
Put plainly: biochemical.
Conditions: not given
Type of data set: biochemical.
As for `CCCC(C)(C)c1ccc2c(c1)OC(C)(C)[C@@H]1CC=C(C)C[C@@H]21` [JWH133], the “Emax ± SEM GTPγS hCB1R” value turned out to be 20% and the “pEC50 ± SEM GTPγS hCB1R” value turned out to be 7.37 ± 0.16.

A further data set deals with T3, Rat recombinant TRPA1 (Rattus norvegicus, UniProt Q6RI86).
T3 construct: expressed in transfected cells
T3 sequence (Q6RI86 whole entry): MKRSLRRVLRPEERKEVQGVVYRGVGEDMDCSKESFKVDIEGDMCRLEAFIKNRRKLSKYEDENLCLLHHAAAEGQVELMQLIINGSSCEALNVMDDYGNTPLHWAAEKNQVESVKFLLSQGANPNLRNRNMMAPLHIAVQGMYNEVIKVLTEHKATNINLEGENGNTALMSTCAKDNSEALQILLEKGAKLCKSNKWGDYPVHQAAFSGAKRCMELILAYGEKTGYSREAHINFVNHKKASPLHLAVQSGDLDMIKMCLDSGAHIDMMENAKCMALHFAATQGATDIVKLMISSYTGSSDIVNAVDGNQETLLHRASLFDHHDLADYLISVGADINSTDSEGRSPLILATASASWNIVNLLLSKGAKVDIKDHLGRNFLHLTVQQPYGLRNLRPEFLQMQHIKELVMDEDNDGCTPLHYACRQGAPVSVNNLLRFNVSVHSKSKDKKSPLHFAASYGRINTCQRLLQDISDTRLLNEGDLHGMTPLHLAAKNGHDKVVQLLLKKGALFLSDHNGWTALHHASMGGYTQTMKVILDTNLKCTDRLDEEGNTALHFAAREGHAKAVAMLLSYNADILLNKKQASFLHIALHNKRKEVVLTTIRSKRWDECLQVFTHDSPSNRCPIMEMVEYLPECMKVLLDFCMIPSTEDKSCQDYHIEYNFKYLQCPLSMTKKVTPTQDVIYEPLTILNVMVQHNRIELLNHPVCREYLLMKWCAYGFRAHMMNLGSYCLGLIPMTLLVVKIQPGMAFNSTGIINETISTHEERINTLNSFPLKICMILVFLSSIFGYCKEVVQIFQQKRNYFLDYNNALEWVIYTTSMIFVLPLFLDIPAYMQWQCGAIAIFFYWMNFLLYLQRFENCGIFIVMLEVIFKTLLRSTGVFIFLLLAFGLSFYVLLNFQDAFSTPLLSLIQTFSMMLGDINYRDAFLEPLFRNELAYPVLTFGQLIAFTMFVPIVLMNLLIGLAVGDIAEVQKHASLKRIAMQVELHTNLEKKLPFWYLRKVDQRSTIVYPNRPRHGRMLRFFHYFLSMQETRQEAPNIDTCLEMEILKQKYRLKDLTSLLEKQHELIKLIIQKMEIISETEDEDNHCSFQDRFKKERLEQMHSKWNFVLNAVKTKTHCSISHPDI
Put plainly: cell-based. Type of data set: cell-based.
Conditions: not given
`CCCC(C)(C)c1ccc2c(c1)OC(C)(C)[C@@H]1CC=C(C)C[C@@H]21` [JWH133]: the “TRPA1 Efficacy (%AITC 100μM)” value is 76.8% and 77 ± 4% and 76.8±3.8%.

The data set is the same for the next values; noted with them: read-out: TRPA1 Potency EC50.
As to `CCCC(C)(C)c1ccc2c(c1)OC(C)(C)[C@@H]1CC=C(C)C[C@@H]21` [JWH133], the concentration for a half-maximal effect (EC50) – broadly, the concentration needed to bring the measured effect to its halfway point – is 8.5 ± 2.3 µM.

Staying with this data set, now noted: vs AITC 100μM, 5 min pre-incubation; read-out: TRPA1 IC50 for antagonism or desensitization.
As for `CCCC(C)(C)c1ccc2c(c1)OC(C)(C)[C@@H]1CC=C(C)C[C@@H]21` [JWH133], the IC50 was 20 µM.

The next data set concerns the target T2, hCB1R. The data set is described as follows: cell-based.
Conditions: not given
As to `CCCC(C)(C)c1ccc2c(c1)OC(C)(C)[C@@H]1CC=C(C)C[C@@H]21` [JWH133], the “Emax ± SEM cAMP hCB1R” value is listed as 37 ± 6 and the “pEC50 ± SEM cAMP hCB1R” value is recorded as less than 5.

A further data set addresses T4, mu (MOP) (h) (Homo sapiens, UniProt P35372).
T4 construct: CEREP (contract assay)
Put plainly: CEREP panel. Type of data set: binding. The settings on record: 10 µM.
As to `CCCC(C)(C)c1ccc2c(c1)OC(C)(C)[C@@H]1CC=C(C)C[C@@H]21` [JWH133], the “% inhibition mu (MOP) (h)” value amounted to 7%.

Tested on in another data set: not given
Assay: not given
The settings on record: 1 μM.
The molecule `CCCC(C)(C)c1ccc2c(c1)OC(C)(C)[C@@H]1CC=C(C)C[C@@H]21` [JWH133] showed a CL hepatocytes mouse of 9.8 µL/min/mio cells.

A further data set addresses T5, PPARgamma (h) (Homo sapiens, UniProt P37231).
T5 construct: CEREP (contract assay)
T5 sequence (P37231 1-505): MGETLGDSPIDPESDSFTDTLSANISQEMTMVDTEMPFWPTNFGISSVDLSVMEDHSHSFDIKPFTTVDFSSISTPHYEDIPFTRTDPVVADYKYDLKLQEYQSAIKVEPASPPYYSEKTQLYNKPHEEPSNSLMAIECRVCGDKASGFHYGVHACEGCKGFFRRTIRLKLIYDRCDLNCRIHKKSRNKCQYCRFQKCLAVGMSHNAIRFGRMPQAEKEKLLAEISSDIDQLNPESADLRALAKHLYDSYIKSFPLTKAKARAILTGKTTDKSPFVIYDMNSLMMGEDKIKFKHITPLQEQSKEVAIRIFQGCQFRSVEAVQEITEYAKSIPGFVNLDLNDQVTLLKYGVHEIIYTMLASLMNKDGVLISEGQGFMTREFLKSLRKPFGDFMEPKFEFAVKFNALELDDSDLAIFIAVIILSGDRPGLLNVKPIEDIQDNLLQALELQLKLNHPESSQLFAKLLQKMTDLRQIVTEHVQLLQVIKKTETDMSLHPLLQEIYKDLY
The data set is described as follows: CEREP panel. Type of data set: binding. The note with it: 10 µM.
For `CCCC(C)(C)c1ccc2c(c1)OC(C)(C)[C@@H]1CC=C(C)C[C@@H]21` [JWH133], the “% inhibition PPARgamma (h)” value is given as -5%.

The next data set has as its target T6, norepinephrine transporter (h) (Homo sapiens, UniProt P23975).
T6 construct: CEREP (contract assay)
Put plainly: biochemical. The settings on record: 10 µM. It is filed as binding.
Take `CCCC(C)(C)c1ccc2c(c1)OC(C)(C)[C@@H]1CC=C(C)C[C@@H]21` [JWH133]: the “% inhibition norepinephrine transporter (h)” value is given as -9%.

A further data set addresses T2, hCB1R. The data set is described as follows: biochemical. Type of data set: binding.
Conditions: not given
This is another data set of the same source.
As to `CCCC(C)(C)c1ccc2c(c1)OC(C)(C)[C@@H]1CC=C(C)C[C@@H]21` [JWH133], the “pKi ± SEM hCB1R” value was less than 5.

The target in the next data set is T7, PPARα (h) (Homo sapiens, UniProt Q07869).
T7 construct: CEREP (contract assay)
T7 sequence (Q07869 1-468): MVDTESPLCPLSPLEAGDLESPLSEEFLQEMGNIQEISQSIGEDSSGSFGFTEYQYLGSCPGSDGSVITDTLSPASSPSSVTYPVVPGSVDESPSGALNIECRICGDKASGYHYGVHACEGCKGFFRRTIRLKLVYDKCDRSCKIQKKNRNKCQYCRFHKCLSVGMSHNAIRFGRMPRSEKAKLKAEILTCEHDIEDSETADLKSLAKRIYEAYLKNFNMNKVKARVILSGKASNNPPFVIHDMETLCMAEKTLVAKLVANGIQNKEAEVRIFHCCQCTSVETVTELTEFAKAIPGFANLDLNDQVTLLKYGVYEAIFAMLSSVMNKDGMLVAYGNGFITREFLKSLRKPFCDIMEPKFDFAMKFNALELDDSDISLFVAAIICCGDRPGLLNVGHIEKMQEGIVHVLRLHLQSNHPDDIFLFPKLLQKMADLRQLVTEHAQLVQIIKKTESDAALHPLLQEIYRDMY
The data set is described as follows: CEREP panel. The settings on record: 10 µM. Type of data set: binding.
`CCCC(C)(C)c1ccc2c(c1)OC(C)(C)[C@@H]1CC=C(C)C[C@@H]21` [JWH133]: the “% inhibition PPARα (h)” value was -25%.

Tested on in another data set: not listed separately
The data set is described as follows: logD distribution coefficient. The settings on record: distribution coefficient.
Consider `CCCC(C)(C)c1ccc2c(c1)OC(C)(C)[C@@H]1CC=C(C)C[C@@H]21` [JWH133], for which the logD – broadly, lipophilicity at a set pH, counting ionised and neutral species – was more than 3.

Another data set has as its system PCP.
Assay: not given
It is filed as binding. The settings on record: 10 µM.
Consider `CCCC(C)(C)c1ccc2c(c1)OC(C)(C)[C@@H]1CC=C(C)C[C@@H]21` [JWH133], for which the “% inhibition PCP” value stood at 2%.

Another data set addresses T8, Rat recombinant TRPM8 (Rattus norvegicus, UniProt Q8R455).
T8 construct: expressed in transfected cells; host or cells: HEK293 (TRPM8-HEK-293, gift from Mario van der Stelt)
Put plainly: TRP channel [Ca2+]i assay. Type of data set: cell-based. The note with it: vs icilin […]; read-out: TRPM8 IC50 for antagonism of icilin.
`CCCC(C)(C)c1ccc2c(c1)OC(C)(C)[C@@H]1CC=C(C)C[C@@H]21` [JWH133]: the IC50 was determined as 48.4 ± 3.5 µM.
